Activity calls are given as the source filed them. How the calls were made is not given here.
Target: Ubiquitin-conjugating enzyme E2 N (Homo sapiens) (UniProt P61088)
Assay: UBC13 polyubiquitination inhibitors, SAR follow-up, biochemical, TR-FRET, set 3 (AID 602205)
Conditions: TR-FRET polyubiquitination assay

Sequence of Ubiquitin-conjugating enzyme E2 N (Homo sapiens) (P61088 whole entry, looked up): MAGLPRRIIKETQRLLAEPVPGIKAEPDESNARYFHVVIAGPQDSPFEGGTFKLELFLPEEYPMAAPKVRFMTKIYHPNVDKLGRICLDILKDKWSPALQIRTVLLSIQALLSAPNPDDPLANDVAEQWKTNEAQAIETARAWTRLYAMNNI

Row | SMILES | IC50
1 | Cc1ccc(NC(=O)C2CCN(c3ncnc4c3nc3n4CCCCC3)CC2)cc1C | inactive
2 | Cc1ccc(NC(=O)C2CCN(c3ncnc4c3nc3n4CCCCC3)CC2)c(Cl)c1 | > 100 µM (inactive)
3 | CC1CN(S(=O)(=O)c2ccc(NC(=O)CCCCCN3C(=O)c4ccccc4C3=O)cc2)CC(C)O1 (centres undefined) | > 100 µM (inactive)
4 | COc1cc(OC)c(NC(=O)C2CCN(c3ncnc4c3nc3n4CCCCC3)CC2)cc1Cl | > 100 µM (inactive)
5 | CCOc1ccc(CCNC(=O)CCCCCN2C(=O)c3ccccc3C2=O)cc1OCC | > 100 µM (inactive)
6 | Cc1cc(Cl)ccc1NC(=O)C1CCN(c2ncnc3c2nc2n3CCCCC2)CC1 | inactive
7 | Cc1ccc(Cl)cc1N1CCN(c2ncnc3c2nc2n3CCCC2)CC1 | > 100 µM (inactive)
8 | c1ccc(CN2CCN(c3ncnc4c3nc3n4CCCC3)CC2)cc1 | > 100 µM (inactive)
9 | COc1ccc(NC(=O)C2CCN(c3ncnc4c3nc3n4CCCCC3)CC2)cc1Cl | > 100 µM (inactive)
10 | c1nc(N2CCC(N3CCCCC3)CC2)c2nc3n(c2n1)CCCC3 | > 100 µM (inactive)

Further lines, results first:

Row | IC50 | SMILES
11 | inactive | Cc1ccc(NC(=O)C2CCN(c3ncnc4c3nc3n4CCCCC3)CC2)cc1F
12 | inactive | O=C(Nc1cc(F)ccc1F)C1CCN(c2ncnc3c2nc2n3CCCCC2)CC1
13 | > 100 µM (inactive) | Fc1ccccc1N1CCN(c2ncnc3c2nc2n3CCCC2)CC1
14 | 9.63 µM | O=C(Nc1cccc(Cl)c1)C1CCN(c2ncnc3c2nc2n3CCCCC2)CC1
15 | > 100 µM (inactive) | COc1cc(Cl)c(C)cc1NC(=O)C1CCN(c2ncnc3c2nc2n3CCCCC2)CC1
16 | inactive | COc1ccc(Cl)cc1NC(=O)C1CCN(c2ncnc3c2nc2n3CCCCC2)CC1
17 | > 100 µM (inactive) | O=C(Nc1ccc(CN2CCCCC2)cc1)C1CCN(c2ncnc3c2nc2n3CCCCC2)CC1
18 | > 100 µM (inactive) | O=C(CCCCCN1C(=O)c2ccccc2C1=O)NCCc1ccccc1
19 | inactive | Cc1c(Cl)cccc1NC(=O)C1CCN(c2ncnc3c2nc2n3CCCCC2)CC1

— PubChem BioAssay AID602205 (Sanford-Burnham Center for Chemical Genomics, 2012)
